Experimental data from ChEMBL document CHEMBL1201862, “PubChem BioAssay data set” (2004).
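Grown in 96-well plates, cells were treated for 48 hours with each compound at five concentrations. Insufficient inhibition: endpoint recorded as highest concentration tested. The concentration for 50% growth inhibition is given as GI50.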 Activity calls are given as the source filed them. Rule as the data show it: active = GI50 up to about 1.1 µM and inactive = higher.

Key:
Assay in all cases: NCI tumour cell line growth inhibition, 48 h
[1] = system: DU-145
[2] = system: NCI-H522
[3] = system: NCI-H226
[4] = system: HCC 2998
[5] = system: IGROV-1
[6] = system: UACC-62
[7] = system: CAKI-1
[8] = system: HOP-62
[9] = system: OVCAR-8
[10] = system: COLO 205
[11] = system: OVCAR-5
[12] = system: MOLT-4
[13] = system: MDA-N
[14] = system: OVCAR-3
[15] = system: SNB-19
[16] = system: SW-620
[17] = system: RPMI-8226
[18] = system: OVCAR-4
[19] = system: HCT-15
[20] = system: PC-3
[21] = system: SF-268
[22] = system: MDA-MB-435
[23] = system: SNB-75
[24] = system: SK-MEL-2
[25] = system: SF-539
[26] = system: UO-31
[27] = system: Malme-3M
[28] = system: 786-0
[29] = system: MCF7
[30] = system: A549
[31] = system: NCI-H23
[32] = system: BT-549
[33] = system: MDA-MB-231
[34] = system: EKVX
[35] = system: SK-MEL-28
[36] = system: A498
[37] = system: KM12
[38] = system: CCRF-CEM
[39] = system: HT-29
[40] = system: HCT-116
[41] = system: K562
[42] = system: Hs-578T
[43] = system: U-251
[44] = system: HOP-92
[45] = system: SK-MEL-5
[46] = system: TK-10
[47] = system: UACC-257
[48] = system: M14
[49] = system: LOX IMVI
[50] = system: RXF 393
[51] = system: SN12C
[52] = system: SR
[53] = system: NCI-H460
[54] = system: NCI/ADR-RES
[55] = system: SF-295
[56] = system: ACHN
[57] = system: HL-60
[58] = system: SK-OV-3
[59] = system: T47D

For `COC(=O)CNC(=O)CNC(=O)CSc1nnc(COc2ccc(Cl)cc2)n1-c1ccccc1`, the GI50 [1] was > 100 µM (inactive), the GI50 [2] was 5.46 µM (inactive) and the GI50 [3] was > 100 µM (inactive). For the same compound, the GI50 [4] was 42 µM (inactive), the GI50 [5] was 17.9 µM (inactive) and the GI50 [6] was 17.5 µM (inactive). The GI50 [7] was 17.6 µM (inactive), the GI50 [8] was > 100 µM (inactive) and the GI50 [9] was > 100 µM (inactive). The GI50 [10] was > 100 µM (inactive), the GI50 [11] was > 100 µM (inactive) and the GI50 [12] was 36.6 µM (inactive). For the same compound, the GI50 [13] was 23.7 µM (inactive), the GI50 [14] was 19.8 µM (inactive) and the GI50 [15] was 86.3 µM (inactive). For the same compound, the GI50 [16] was 68.1 µM (inactive), the GI50 [17] was 29.4 µM (inactive) and the GI50 [18] was > 100 µM (inactive). The GI50 [19] was greater than 100 µM, the GI50 [20] was 52.7 µM (inactive) and the GI50 [21] was 20.8 µM (inactive). For the same compound, the GI50 [22] was 18.7 µM (inactive), the GI50 [23] was 25.4 µM (inactive) and the GI50 [24] was 19.4 µM (inactive). The GI50 [25] was > 100 µM (inactive), the GI50 [26] was 21.4 µM (inactive) and the GI50 [27] was 18.7 µM (inactive). The GI50 [28] was > 100 µM (inactive), the GI50 [29] was > 100 µM (inactive) and the GI50 [30] was > 100 µM (inactive). For the same compound, the GI50 [31] was > 100 µM (inactive), the GI50 [32] was 24.4 µM (inactive) and the GI50 [33] was 19.1 µM (inactive). For the same compound, the GI50 [34] was > 100 µM (inactive), the GI50 [35] was 25.1 µM (inactive) and the GI50 [36] was > 100 µM (inactive). For the same compound, the GI50 [37] was 21.3 µM (inactive), the GI50 [38] was 25.3 µM (inactive) and the GI50 [39] was > 100 µM (inactive). For the same compound, the GI50 [40] was 38.7 µM (inactive), the GI50 [41] was 30.1 µM (inactive) and the GI50 [42] was 23.2 µM (inactive). For the same compound, the GI50 [43] was 49.9 µM (inactive), the GI50 [44] was 19.2 µM (inactive) and the GI50 [45] was 22.4 µM (inactive). For the same compound, the GI50 [46] was 44.5 µM (inactive), the GI50 [47] was 19.1 µM (inactive) and the GI50 [48] was 37.4 µM (inactive). The GI50 [49] was 23.2 µM (inactive), the GI50 [50] was 15.4 µM (inactive) and the GI50 [51] was > 100 µM (inactive). For the same compound, the GI50 [52] was 29 µM (inactive), the GI50 [53] was 62.8 µM (inactive) and the GI50 [54] was > 100 µM (inactive). For the same compound, the GI50 [55] was > 100 µM (inactive) and the GI50 [56] was > 100 µM (inactive).
In the case of `O=C(CCCN1CCC(Nc2ccccc2)(c2nnnn2C2CCCCC2)CC1)c1ccc(F)cc1`, the GI50 [1] is reported as 3.81 µM (inactive), the GI50 [2] is reported as 6.55 µM (inactive) and the GI50 [3] is reported as 17.9 µM (inactive). The GI50 [4] was 3.29 µM (inactive), the GI50 [5] was 11.1 µM (inactive) and the GI50 [6] was 11.7 µM (inactive). For the same compound, the GI50 [8] was 6.17 µM (inactive), the GI50 [9] was 13.1 µM (inactive) and the GI50 [10] was 2.24 µM (inactive). For the same compound, the GI50 [11] was 7.23 µM (inactive), the GI50 [12] was 14 µM (inactive) and the GI50 [13] was 5.28 µM (inactive). The GI50 [57] was 4.73 µM (inactive), the GI50 [14] was 9.27 µM (inactive) and the GI50 [15] was 9.64 µM (inactive). The GI50 [16] was 6.76 µM (inactive), the GI50 [17] was 3.48 µM (inactive) and the GI50 [18] was 6.34 µM (inactive). For the same compound, the GI50 [19] was 8.28 µM, the GI50 [20] was 3.94 µM (inactive) and the GI50 [21] was 2.4 µM (inactive). For the same compound, the GI50 [22] was 6.62 µM (inactive), the GI50 [23] was 10.2 µM (inactive) and the GI50 [24] was 4.21 µM (inactive). The GI50 [58] was 13.3 µM (inactive), the GI50 [25] was 2.25 µM (inactive) and the GI50 [26] was 3.78 µM (inactive). For the same compound, the GI50 [27] was 3.24 µM (inactive), the GI50 [28] was 3.89 µM (inactive) and the GI50 [29] was 2.28 µM (inactive). The GI50 [30] was 3.49 µM (inactive), the GI50 [31] was 13.7 µM (inactive) and the GI50 [32] was 7.96 µM (inactive). For the same compound, the GI50 [33] was 8.65 µM (inactive), the GI50 [34] was 3.3 µM (inactive) and the GI50 [35] was 3.79 µM (inactive). For the same compound, the GI50 [36] was > 10 µM (inactive), the GI50 [37] was 8.47 µM (inactive) and the GI50 [38] was 16.4 µM (inactive). The GI50 [39] was 3.03 µM (inactive), the GI50 [40] was 4.48 µM (inactive) and the GI50 [41] was 13 µM (inactive). For the same compound, the GI50 [42] was 10.3 µM (inactive), the GI50 [43] was 5.86 µM (inactive) and the GI50 [45] was 1.64 µM (inactive). For the same compound, the GI50 [46] was 12.9 µM (inactive), the GI50 [47] was 2.52 µM (inactive) and the GI50 [48] was 1.99 µM (inactive). For the same compound, the GI50 [49] was 3.81 µM (inactive), the GI50 [50] was 9.64 µM (inactive) and the GI50 [51] was 10.6 µM (inactive). For the same compound, the GI50 [52] was 6.67 µM (inactive), the GI50 [53] was 8.65 µM (inactive) and the GI50 [54] was 21 µM (inactive). The GI50 [55] was 14.5 µM (inactive) and the GI50 [56] was 4.58 µM (inactive).
With `CC(C)(C)c1cc(C(=O)/C=C/c2ccc3c(c2)CCO3)cc(C(C)(C)C)c1O` the GI50 [1] was 1.39 µM (inactive), the GI50 [2] was 0.323 µM (active) and the GI50 [3] was 2.24 µM (inactive). For the same compound, the GI50 [4] was 1.89 µM (inactive), the GI50 [5] was 2.29 µM (inactive) and the GI50 [6] was 1.16 µM (inactive). For the same compound, the GI50 [7] was 0.724 µM (active), the GI50 [8] was 4.15 µM (inactive) and the GI50 [9] was 1.63 µM (inactive). For the same compound, the GI50 [10] was 0.701 µM (active), the GI50 [11] was 2.39 µM (inactive) and the GI50 [12] was 2.42 µM (inactive). The GI50 [57] was 0.951 µM (active), the GI50 [14] was 5.07 µM (inactive) and the GI50 [15] was 2.94 µM (inactive). For the same compound, the GI50 [16] was 1.13 µM (inactive), the GI50 [17] was 0.984 µM (active) and the GI50 [18] was 0.869 µM (active). For the same compound, the GI50 [19] was 1.04 µM, the GI50 [20] was 0.891 µM (active) and the GI50 [21] was 2.58 µM (inactive). For the same compound, the GI50 [22] was 0.327 µM (active), the GI50 [23] was 0.733 µM (active) and the GI50 [24] was 1.29 µM (inactive). For the same compound, the GI50 [58] was 1.64 µM (inactive), the GI50 [25] was 0.619 µM (active) and the GI50 [26] was 1.2 µM (inactive). For the same compound, the GI50 [27] was > 100 µM (inactive), the GI50 [28] was 1.12 µM (active) and the GI50 [29] was 1.23 µM (inactive). The GI50 [30] was 1.63 µM (inactive), the GI50 [31] was 1.14 µM (inactive) and the GI50 [32] was 1.8 µM (inactive). The GI50 [33] was 2.28 µM (inactive), the GI50 [34] was 0.729 µM (active) and the GI50 [35] was > 83 µM (inactive). For the same compound, the GI50 [36] was 1.12 µM (active), the GI50 [37] was 0.49 µM (active) and the GI50 [38] was 1.07 µM (active). For the same compound, the GI50 [39] was 1.04 µM (active), the GI50 [59] was 4.86 µM (inactive) and the GI50 [40] was 1.2 µM (inactive). For the same compound, the GI50 [41] was 0.938 µM (active), the GI50 [42] was 1.32 µM (inactive) and the GI50 [43] was 0.94 µM (active). For the same compound, the GI50 [44] was 16.2 µM (inactive), the GI50 [45] was 0.908 µM (active) and the GI50 [46] was 1.31 µM (inactive). For the same compound, the GI50 [47] was 0.792 µM (active), the GI50 [48] was 1.17 µM (inactive) and the GI50 [49] was 1.57 µM (inactive). For the same compound, the GI50 [50] was 0.216 µM (active), the GI50 [51] was 2.99 µM (inactive) and the GI50 [52] was 0.548 µM (active). For the same compound, the GI50 [53] was 0.76 µM (active), the GI50 [54] was 0.614 µM (active) and the GI50 [55] was 1.69 µM (inactive). The GI50 [56] was 1.69 µM (inactive).
